{"source": "patent US9079964B2", "about": "“Immunoassay for cyclopropylindole based synthetic cannabinoids, metabolites and derivatives thereof” (Randox Laboratories Limited, priority 2013, dated 2015)", "key": {"[1]": {"test_system": "antiserum raised to Immunogen I", "test": "Competitive ELISA with IgG fraction of antiserum raised to Immunogen I (second bleed) and hapten 1-HRP detecting agent", "assay_type": "binding, sheep", "procedure": "(§1) The wells of an enhanced binding 96 well polystyrene microtiter plate were coated with IgG fraction of antiserum raised to Immunogen I or II, diluted in 10 mM Tris, pH 8.5 (125 μl/well). The appropriate antibody coating dilution was determined using standard ELISA checkerboard techniques. The plate was incubated overnight at 4° C., washed 4 times over 10 minutes with Tris buffered saline containing Tween20 (TBST) and tapped dry. Standard solutions (UR-144 N-pentanoic acid) were applied at 0, 0.625, 1.25, 2.5, 5, 10, 20 and 40 ng/ml and 50 μl of each was added to the appropriate wells. 75 μl of conjugate (appropriate hapten-HRP) diluted in Tris buffer (pH 7.2) containing EDTA, D-mannitol, sucrose, thimerosol and BSA, was added to each of the wells. The appropriate dilution of conjugate was also determined using standard ELISA checkerboard techniques. The plate was incubated at 25° C. for 1 hour. Excess unbound conjugate was removed by washing 6 times over a ten minute period with TBST. 125 μl of tetramethylbenzidine (TMB) substrate solution was added to each well of the plate that was then incubated for 20 minutes in the dark at room temperature. The reaction was terminated by addition of 125 μl of 0.2 M H2SO4 to each well. The absorbance was then measured at 450 nm using a microtiter plate reader. The data are inputted to a computer program called ‘KC Junior’ (Biotek). It gives a 4 parameter fit curve and allows the calculation of concentrations between the standard runs. This program is used to calculate the IC50 values by dividing the 0 ng/ml optical density (OD) value by 2 and obtaining the concentration value from the curve for this OD.\n(§2) Cross-reactivity was calculated according to the following formula: % CR=IC50, UR-144 N-pentanoic acid/IC50, cross reactant×100 Where % CR is the percentage cross-reactivity, IC50, UR-144 N-pentanoic acid is the concentration of UR-144 N-pentanoic acid that causes 50% displacement of signal and IC50, cross reactant is the concentration of the cannabinoid/metabolite/selected molecule that causes 50% displacement of signal.\nIn order to determine the specificity of the competitive ELISAs, standard solutions of a range of structurally related synthetic cannabinoids and their metabolites were prepared in TBST (Tris-Buffered Saline and Tween 20). Using the calibration curves generated and employing a single level of cross reactants, these were used to determine the cross-reactivity of the immunoassays with these substances."}, "[2]": {"test_system": "antiserum raised to Immunogen I", "test": "UR144/XLR11 Synthetic Cannabinoids (Spice) ELISA, antiserum raised to Immunogen I (third bleed)", "assay_type": "binding, sheep", "conditions": "for Concentration of compounds that elicit a negative response: Table 4, negative response at this concentration; for % Cross-Reactivity: Table 4, relative to UR144 N-Pentanoic Acid = 100", "procedure": "as §1, §2\nA further assay was carried out in accordance with the protocol described in Example 9 using Immunogen I."}, "[3]": {"test_system": "antibodies provided in European patent application number 2,487,155", "conditions": "antibodies of EP 2,487,155; cited from earlier work"}, "CB1 receptor": {"target": "CB1 receptor (Homo sapiens, UniProt P21554)", "sequence (P21554 whole entry)": "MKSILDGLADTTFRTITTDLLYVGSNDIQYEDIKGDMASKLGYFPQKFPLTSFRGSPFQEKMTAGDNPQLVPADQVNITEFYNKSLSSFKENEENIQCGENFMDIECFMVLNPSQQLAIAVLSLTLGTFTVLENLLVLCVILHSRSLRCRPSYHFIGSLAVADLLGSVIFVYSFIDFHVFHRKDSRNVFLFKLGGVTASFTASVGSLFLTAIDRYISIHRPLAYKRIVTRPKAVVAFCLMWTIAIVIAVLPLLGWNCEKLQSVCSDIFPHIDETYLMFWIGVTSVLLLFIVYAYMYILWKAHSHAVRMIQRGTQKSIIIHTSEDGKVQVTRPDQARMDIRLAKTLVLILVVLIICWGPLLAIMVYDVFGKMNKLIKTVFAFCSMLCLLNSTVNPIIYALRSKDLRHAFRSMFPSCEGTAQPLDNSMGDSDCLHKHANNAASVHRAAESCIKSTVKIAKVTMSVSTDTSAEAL", "conditions": "CB1 versus CB2; cited from earlier work"}, "[4]": {"conditions": "Table 2, cross-reactant at 100 ng/ml (single level)"}, "[5]": {"conditions": "Table 2, cross-reactant tested at 100 ng/ml"}, "[6]": {"conditions": "Table 2, cross-reactant tested at 100 ng/ml, relative to UR-144 N-pentanoic acid"}, "[7]": {"conditions": "Table 1, B = absorbance at 450 nm at x ng/ml standard, B0 at 0 ng/ml, second bleed"}, "[8]": {"conditions": "Table 1, CR based on 100% for UR-144 N-pentanoic acid"}, "[9]": {"conditions": "Table 1, standard concentration which produces 50% B/B0, second bleed"}}, "data": [{"smiles": "C=CCCCn1cc(C(=O)c2cccc3ccccc23)c2ccccc21", "note": "[JWH-022]", "values": [{"measurement": "% B/BO", "setting": "[1]; [4]", "value": 91.83, "unit": "%"}, {"measurement": "IC50", "setting": "[1]; [5]", "value": ">100", "unit": "ng/mL"}, {"measurement": "% Cross-reactivity (CR)", "setting": "[1]; [6]", "value": "<3.0", "unit": "%"}, {"measurement": "Concentration of compounds that elicit a negative response", "setting": "[2]", "value": 100, "unit": "ng/mL"}]}, {"smiles": "CCCCn1cc(C(=O)c2cccc3ccccc23)c2ccccc21", "note": "[JWH-073]", "values": [{"measurement": "% B/BO", "setting": "[1]; [4]", "value": 90.44, "unit": "%"}, {"measurement": "IC50", "setting": "[1]; [5]", "value": ">100", "unit": "ng/mL"}, {"measurement": "% Cross-reactivity (CR)", "setting": "[1]; [6]", "value": "<3.0", "unit": "%"}, {"measurement": "Concentration of compounds that elicit a negative response", "setting": "[2]", "value": 100, "unit": "ng/mL"}]}, {"smiles": "CCCCCn1cc(C(=O)c2ccc(OC)c3ccccc23)c2ccccc21", "note": "[JWH-081]", "values": [{"measurement": "% B/BO", "setting": "[1]; [4]", "value": 97.10, "unit": "%"}, {"measurement": "IC50", "setting": "[1]; [5]", "value": ">100", "unit": "ng/mL"}, {"measurement": "% Cross-reactivity (CR)", "setting": "[1]; [6]", "value": "<3.0", "unit": "%"}, {"measurement": "Concentration of compounds that elicit a negative response", "setting": "[2]", "value": 100, "unit": "ng/mL"}]}, {"smiles": "CCCCCn1c(C)c(C(=O)c2ccc(OC)c3ccccc23)c2ccccc21", "note": "[JWH-098]", "values": [{"measurement": "% B/BO", "setting": "[1]; [4]", "value": 93.94, "unit": "%"}, {"measurement": "IC50", "setting": "[1]; [5]", "value": ">100", "unit": "ng/mL"}, {"measurement": "% Cross-reactivity (CR)", "setting": "[1]; [6]", "value": "<3.0", "unit": "%"}, {"measurement": "Concentration of compounds that elicit a negative response", "setting": "[2]", "value": 100, "unit": "ng/mL"}]}, {"smiles": "CCCCCn1cc(C(=O)c2ccc(C)c3ccccc23)c2ccccc21", "note": "[JWH-122]", "values": [{"measurement": "% B/BO", "setting": "[1]; [4]", "value": 97.01, "unit": "%"}, {"measurement": "IC50", "setting": "[1]; [5]", "value": ">100", "unit": "ng/mL"}, {"measurement": "% Cross-reactivity (CR)", "setting": "[1]; [6]", "value": "<3.0", "unit": "%"}, {"measurement": "Concentration of compounds that elicit a negative response", "setting": "[2]", "value": 100, "unit": "ng/mL"}]}, {"smiles": "O=C(c1cccc2ccccc12)c1cn(CCN2CCOCC2)c2ccccc12", "note": "[JWH-200]", "values": [{"measurement": "% B/BO", "setting": "[1]; [4]", "value": 86.38, "unit": "%"}, {"measurement": "IC50", "setting": "[1]; [5]", "value": ">100", "unit": "ng/mL"}, {"measurement": "% Cross-reactivity (CR)", "setting": "[1]; [6]", "value": "<3.0", "unit": "%"}, {"measurement": "Concentration of compounds that elicit a negative response", "setting": "[2]", "value": 100, "unit": "ng/mL"}]}, {"smiles": "CCCCCn1cc(C(=O)Cc2ccccc2OC)c2ccccc21", "note": "[JWH-250]", "values": [{"measurement": "% B/BO", "setting": "[1]; [4]", "value": 85.90, "unit": "%"}, {"measurement": "IC50", "setting": "[1]; [5]", "value": ">100", "unit": "ng/mL"}, {"measurement": "% Cross-reactivity (CR)", "setting": "[1]; [6]", "value": "<3.0", "unit": "%"}, {"measurement": "Concentration of compounds that elicit a negative response", "setting": "[2]", "value": 100, "unit": "ng/mL"}]}, {"smiles": "CCCCCn1cc(C(=O)c2ccc(Cl)c3ccccc23)c2ccccc21", "note": "[JWH-398]", "values": [{"measurement": "% B/BO", "setting": "[1]; [4]", "value": 88.86, "unit": "%"}, {"measurement": "IC50", "setting": "[1]; [5]", "value": ">100", "unit": "ng/mL"}, {"measurement": "% Cross-reactivity (CR)", "setting": "[1]; [6]", "value": "<3.0", "unit": "%"}, {"measurement": "Concentration of compounds that elicit a negative response", "setting": "[2]", "value": 100, "unit": "ng/mL"}]}, {"smiles": "CCCCCn1cc(C(=O)c2ccc(OC)cc2)c2ccccc21", "note": "[RCS 4]", "values": [{"measurement": "% B/BO", "setting": "[1]; [4]", "value": 80.02, "unit": "%"}, {"measurement": "IC50", "setting": "[1]; [5]", "value": ">100", "unit": "ng/mL"}, {"measurement": "% Cross-reactivity (CR)", "setting": "[1]; [6]", "value": "<3.0", "unit": "%"}, {"measurement": "Concentration of compounds that elicit a negative response", "setting": "[2]", "value": 100, "unit": "ng/mL"}]}, {"smiles": "COc1ccccc1CC(=O)c1cn(CCC2CCCCC2)c2ccccc12", "note": "[RCS 8]", "values": [{"measurement": "% B/BO", "setting": "[1]; [4]", "value": 88.15, "unit": "%"}, {"measurement": "IC50", "setting": "[1]; [5]", "value": ">100", "unit": "ng/mL"}, {"measurement": "% Cross-reactivity (CR)", "setting": "[1]; [6]", "value": "<3.0", "unit": "%"}, {"measurement": "Concentration of compounds that elicit a negative response", "setting": "[2]", "value": 100, "unit": "ng/mL"}]}, {"smiles": "CC1(C)C(C(=O)c2cn(CCCCC(=O)O)c3ccccc23)C1(C)C", "note": "[UR-144 N-pentanoic acid]", "values": [{"measurement": "% B/BO", "setting": "[1]; [7]", "value": 16.8, "unit": "%"}, {"measurement": "% Cross-reactivity (CR)", "setting": "[1]; [8]", "value": 100, "unit": "%"}, {"measurement": "IC50", "setting": "[1]; [9]", "value": 3.484, "unit": "ng/mL"}, {"measurement": "% Cross-Reactivity", "setting": "[2]", "value": 100, "unit": "%"}]}, {"smiles": "CC1(C)C(C(=O)c2cn(CCCCCO)c3ccccc23)C1(C)C", "note": "[UR-144 N-pentanol]", "values": [{"measurement": "% B/BO", "setting": "[1]; [7]", "value": 13.0, "unit": "%"}, {"measurement": "% Cross-reactivity (CR)", "setting": "[1]; [8]", "value": 109.2, "unit": "%"}, {"measurement": "IC50", "setting": "[1]; [9]", "value": 3.191, "unit": "ng/mL"}, {"measurement": "% Cross-Reactivity", "setting": "[2]", "value": 110, "unit": "%"}]}, {"smiles": "CC1(C)C(C(=O)c2c[nH]c3ccccc23)C1(C)C", "note": "[UR-144 desalkyl]", "values": [{"measurement": "% B/BO", "setting": "[1]; [7]", "value": 38.5, "unit": "%"}, {"measurement": "% Cross-reactivity (CR)", "setting": "[1]; [8]", "value": 18.1, "unit": "%"}, {"measurement": "IC50", "setting": "[1]; [9]", "value": 19.207, "unit": "ng/mL"}, {"measurement": "% Cross-Reactivity", "setting": "[2]", "value": 13, "unit": "%"}]}, {"smiles": "CCCCCn1cc(C(=O)C2C(C)(C)C2(C)C)c2ccccc21", "note": "[UR-144, (1-pentyl-1H-Indol-3-yl)(2,2,3,3-tetramethylcyclopropyl) methanone]", "values": [{"measurement": "cross-reactivity (in words)", "setting": "[3]", "value": "no significant cross-reactivity"}, {"measurement": "% B/BO", "setting": "[1]; [7]", "value": 40.5, "unit": "%"}, {"measurement": "% Cross-reactivity (CR)", "setting": "[1]; [8]", "value": 15.3, "unit": "%"}, {"measurement": "IC50", "setting": "[1]; [9]", "value": 22.815, "unit": "ng/mL"}, {"measurement": "lower affinity for the CB1 receptor than for CB2", "setting": "CB1 receptor", "value": 83, "unit": "×"}, {"measurement": "% Cross-Reactivity", "setting": "[2]", "value": 19, "unit": "%"}]}, {"smiles": "CC1(C)C(C(=O)c2cn(CCCCCF)c3ccccc23)C1(C)C", "note": "[XLR-11, (1-(5-fluoropentyl)-1H-Indol-3-yl)(2,2,3,3-tetramethylcyclopropyl) methanone]", "values": [{"measurement": "% B/BO", "setting": "[1]; [7]", "value": 24.0, "unit": "%"}, {"measurement": "% Cross-reactivity (CR)", "setting": "[1]; [8]", "value": 36.9, "unit": "%"}, {"measurement": "IC50", "setting": "[1]; [9]", "value": 9.454, "unit": "ng/mL"}, {"measurement": "% Cross-Reactivity", "setting": "[2]", "value": 29, "unit": "%"}]}]}
